Patent US20120309739A1, “AKT / PKB INHIBITORS” (ALMAC DISCOVERY LIMITED, priority 2009, published 2012)

Experiments:
AKT1 = molecular target: T1, AKT1 (Homo sapiens, UniProt P31749); experiment: AKT Kinase Assay (IMAP fluorescent polarisation) vs AKT1; type: biochemical; settings: activated AKT1, FAM Crosstide substrate
T1 construct: purchased SignalChem
Method in brief: (§1)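 Each activated AKT isoform, at a pre-determined linear-range concentration, was pre-incubated 45 min at room temperature with compound in a fourteen-point half-log series. ATP plus 5′FAM-Crosstide then reacted 1 h; IMAP binding reagent stopped it (1 h). Fluorescence polarisation (ex 485/em 528 nm) versus vehicle gave IC50 by non-linear regression.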

AKT2 = molecular target: T2, AKT2 (Homo sapiens, UniProt P31751); experiment: AKT Kinase Assay (IMAP fluorescent polarisation) vs AKT2; type: biochemical; settings: activated AKT2, FAM Crosstide substrate
T2 construct: purchased SignalChem
T2 sequence (P31751 whole entry): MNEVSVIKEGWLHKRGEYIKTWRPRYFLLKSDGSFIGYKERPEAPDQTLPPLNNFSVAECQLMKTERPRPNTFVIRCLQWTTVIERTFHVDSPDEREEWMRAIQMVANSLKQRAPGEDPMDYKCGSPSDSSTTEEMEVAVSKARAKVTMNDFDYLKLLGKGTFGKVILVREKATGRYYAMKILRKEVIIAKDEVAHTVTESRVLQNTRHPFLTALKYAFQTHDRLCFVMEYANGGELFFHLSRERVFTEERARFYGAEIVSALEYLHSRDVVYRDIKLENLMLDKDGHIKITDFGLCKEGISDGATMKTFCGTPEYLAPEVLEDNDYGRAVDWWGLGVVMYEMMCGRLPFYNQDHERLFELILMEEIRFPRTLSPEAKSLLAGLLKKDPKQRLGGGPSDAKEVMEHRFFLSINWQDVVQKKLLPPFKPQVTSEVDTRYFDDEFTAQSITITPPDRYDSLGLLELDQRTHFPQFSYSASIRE
Method in brief: as §1

AKT phosphorylation = experiment: Phosphorylation status of AKT/PI3K pathway via western blotting; type: cell-based; settings: for 48 h at 10 μM
Source text: Analysis of Compound Effects on AKT Signalling Pathways
Phosphorylation status of various members of the AKT/PI3K pathway were investigated via western blotting.
Materials Required for this Assay
20× Running buffer (Invitrogen); Rainbow marker ladder (GE Healthcare); Reducing buffer (Invitrogen); 20× Transfer buffer (Invitrogen); 4-12% Bis-Tris Gels (Invitrogen); Filter paper (Whatman); Nitrocellulose (Amersham); ECL plus detection reagents (GE Healthcare); Radiographic film (Kodak); Biorad Protein determination reagent (Biorad); AKT pathway signalling antibodies (Cell Signalling)
LnCaP and PC3 cell lines were washed, detached and re-suspended in fresh medium. They were seeded in 90 mm^2 dishes and incubated overnight ([…]/5% CO2) to allow adherence. […]
The medium was removed and the cells placed on ice and washed in PBS. […] The resultant supernatant was assayed for protein content using the Bradford method (Biorad) and equal quantities of protein calculated and heated in sample reducing buffer to 95° C. for ten minutes. […]
The membranes were used to determine difference in total AKT, pSer473 AKT, pGSK3β and total GSK3β (all sourced from Cell Signalling). […] The membranes were washed three times in PBS and incubated with the respective secondary antibodies (Sigma Aldrich) for two hours and the proteins were detected using ECL plus detection reagents (GE Healthcare).

AKT3 = molecular target: T3, AKT3 (Homo sapiens, UniProt Q9Y243); experiment: AKT Kinase Assay (IMAP fluorescent polarisation) vs AKT3; type: biochemical; settings: activated AKT3, FAM Crosstide substrate
T3 construct: purchased SignalChem
T3 sequence (Q9Y243 whole entry): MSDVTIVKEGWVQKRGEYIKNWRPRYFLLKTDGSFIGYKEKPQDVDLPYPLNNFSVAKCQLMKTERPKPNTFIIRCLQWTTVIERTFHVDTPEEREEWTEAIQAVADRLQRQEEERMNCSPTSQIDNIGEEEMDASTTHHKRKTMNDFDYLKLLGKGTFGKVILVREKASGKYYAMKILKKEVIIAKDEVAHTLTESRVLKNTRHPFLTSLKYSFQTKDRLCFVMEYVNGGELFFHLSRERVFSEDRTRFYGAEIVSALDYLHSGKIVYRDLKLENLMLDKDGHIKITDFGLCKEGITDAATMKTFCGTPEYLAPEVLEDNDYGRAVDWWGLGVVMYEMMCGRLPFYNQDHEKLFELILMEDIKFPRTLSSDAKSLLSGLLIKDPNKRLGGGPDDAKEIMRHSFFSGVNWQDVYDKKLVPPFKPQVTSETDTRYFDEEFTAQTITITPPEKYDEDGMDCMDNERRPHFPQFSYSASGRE
Method in brief: as §1

T1 sequence (P31749 whole entry): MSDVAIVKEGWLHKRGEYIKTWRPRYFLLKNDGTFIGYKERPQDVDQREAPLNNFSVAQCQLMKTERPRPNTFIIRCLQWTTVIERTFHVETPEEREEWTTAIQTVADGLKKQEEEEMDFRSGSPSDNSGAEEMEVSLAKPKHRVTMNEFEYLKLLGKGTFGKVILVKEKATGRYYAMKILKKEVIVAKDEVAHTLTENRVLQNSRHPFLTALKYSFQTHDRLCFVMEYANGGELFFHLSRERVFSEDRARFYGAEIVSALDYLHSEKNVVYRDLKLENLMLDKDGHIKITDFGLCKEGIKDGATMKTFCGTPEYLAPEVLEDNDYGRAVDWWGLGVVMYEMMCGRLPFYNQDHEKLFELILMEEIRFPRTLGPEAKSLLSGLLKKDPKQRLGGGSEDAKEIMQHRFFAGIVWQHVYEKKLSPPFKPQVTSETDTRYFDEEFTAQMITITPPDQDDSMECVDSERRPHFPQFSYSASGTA

How did the IC50 (AKT1) turn out when CSc1nc2oc(-c3ccc(C4(N)CCC4)cc3)c(-c3ccccc3)c2c(=O)[nH]1 [Example 15, 6-(4-(1-Aminocyclobutyl)phenyl)-2-(methylthio)-5-phenylfuro[2,3-d]pyrimidin-4(3H)-one] was run?
The IC50 was 100 to 1000 nM.

And the IC50 (AKT2)?
Its IC50 is 100 to 1000 nM.

And the “inhibition of AKT phosphorylation” value (AKT phosphorylation)?
The value was “inhibition of AKT phosphorylation”.

What about the IC50 (AKT3) of the same compound?
The IC50 was 1000 to 10000 nM.
